# Reference: patent US6949648B2, “Condensed pyrazole derivatives, process for producing the same and use thereof” (Takeda Pharmaceutical Company Limited, priority 2000, dated 2005)
row,melting point,Compound
1,159 to 160 °C,"Cc1nn(-c2ccccn2)c2nc3cc(F)c(F)cc3c(OC(C)C)c12 [Example 2-95, 6,7-Difluoro-4-isopropoxy-3-methyl-1-(2-pyridinyl)-1H-pyrazolo[3,4-b]quinoline]"
2,214 to 215 °C,"Cc1nn(-c2ccccn2)c2nc3cc(Cl)c(F)cc3c(Cl)c12 [Example 2-96, 4,7-Dichloro-6-fluoro-3-methyl-1-(2-pyridinyl)-1H-pyrazolo[3,4-b]quinoline]"
3,264 to 265 °C,"Cc1nn(-c2ccccn2)c2[nH]c3cc(Cl)c(F)cc3c(=O)c12 [Example 2-97, 7-Chloro-6-fluoro-3-methyl-1-(2-pyridinyl)-1,9-dihydro-4H-pyrazolo[3,4-b]quinolin-4-one]"
4,211 °C,"Cc1nn(-c2ccccn2)c2nc3cc(F)c(Cl)cc3c(Cl)c12 [Example 2-98, 4,6-Dichloro-7-fluoro-3-methyl-1-(2-pyridinyl)-1H-pyrazolo[3,4-b]quinoline]"
5,157 to 159 °C,"Cc1nn(-c2ccccn2)c2nc3ccccc3c(C)c12 [Example 2-101, 3,4-Dimethyl-1-(2-pyridinyl)-1H-pyrazolo[3,4-b]quinoline]"
6,112 to 114 °C,"CCc1c2ccccc2nc2c1c(C)nn2-c1ccccn1 [Example 2-102, 4-Ethyl-3-methyl-1-(2-pyridinyl)-1H-pyrazolo[3,4-b]quinoline]"
7,108 to 109 °C,"CCCc1c2ccccc2nc2c1c(C)nn2-c1ccccn1 [Example 2-103, 3-Methyl-4-propyl-1-(2-pyridinyl)-1H-pyrazolo[3,4-b]quinoline]"
8,102 to 103 °C,"CCCCc1c2ccccc2nc2c1c(C)nn2-c1ccccn1 [Example 2-104, 4-Butyl-3-methyl-1-(2-pyridinyl)-1H-pyrazolo[3,4-b]quinoline]"
9,87 to 88 °C,"Cc1nn(-c2ccccn2)c2nc3ccccc3c(CC(C)C)c12 [Example 2-105, 4-Isobutyl-3-methyl-1-(2-pyridinyl)-1H-pyrazolo[3,4-b]quinoline]"
10,121 to 122 °C,"CCCCCc1c2ccccc2nc2c1c(C)nn2-c1ccccn1 [Example 2-106, 3-Methyl-4-pentyl-1-(2-pyridinyl)-1H-pyrazolo[3,4-b]quinoline]"
11,210 to 211 °C,"Cc1nn(-c2ccccn2)c2nc3ccccc3c(C#N)c12 [Example 2-107, 3-Methyl-1-(2-pyridinyl)-1H-pyrazolo[3,4-b]quinoline-4-carbonitrile]"
12,> 300 °C,"Cc1nn(-c2ccccn2)c2nc3ccccc3c(C(N)=O)c12 [Example 2-108, 3-Methyl-1-(2-pyridinyl)-1H-pyrazolo[3,4-b]quinoline-4-carboxamide]"
13,191 to 193 °C,"Cc1nn(-c2cccc(Cl)n2)c2nc3ccccc3c(Cl)c12 [Example 2-109, 4-Chloro-1-(6-chloro-2-pyridinyl)-3-methyl-1H-pyrazolo[3,4-b]quinoline]"
14,251 to 253 °C,"Cc1nn(-c2cccc(Cl)n2)c2[nH]c3ccccc3c(=O)c12 [Example 2-110, 1-(6-Chloro-2-pyridinyl)-3-methyl-1,9-dihydro-4H-pyrazolo[3,4-b]quinolin-4-one]"
15,216 to 217 °C,"Cc1nn(-c2ccc(Cl)cn2)c2nc3ccccc3c(Cl)c12 [Example 2-113, 4-Chloro-1-(5-chloro-2-pyridinyl)-3-methyl-1H-pyrazolo[3,4-b]quinoline]"
16,262 to 263 °C,"Cc1nn(-c2ccc(Cl)cn2)c2[nH]c3ccccc3c(=O)c12 [Example 2-114, 1-(5-Chloro-2-pyridinyl)-3-methyl-1,9-dihydro-4H-pyrazolo[3,4-b]quinolin-4-one]"

row,melting point,Compound
1,197 to 200 °C,"Cc1ccc(-n2nc(C)c3c(Cl)c4ccccc4nc32)nc1 [Example 2-115, 4-Chloro-3-methyl-1-(5-methyl-2-pyridinyl)-1H-pyrazolo[3,4-b]quinoline]"
2,229 to 232 °C,"Cc1ccc(-n2nc(C)c3c(N)c4ccccc4nc32)nc1 [Example 2-116, 3-Methyl-1-(5-methyl-2-pyridinyl)-1H-pyrazolo[3,4-b]quinolin-4-ylamine]"
3,160 to 161 °C,"Cc1cccnc1-n1nc(C)c2c(Cl)c3ccccc3nc21 [Example 2-118, 4-Chloro-3-methyl-1-(3-methyl-2-pyridinyl)-1H-pyrazolo[3,4-b]quinoline]"
4,202 to 205 °C,"Cc1cccnc1-n1nc(C)c2c(N)c3ccccc3nc21 [Example 2-119, 3-Methyl-1-(3-methyl-2-pyridinyl)-1H-pyrazolo[3,4-b]quinolin-4-ylamine]"
5,184 to 185 °C,"Cc1cccnc1-n1nc(C)c2c(=O)c3ccccc3[nH]c21 [Example 2-120, 3-Methyl-1-(3-methyl-2-pyridinyl)-1,9-dihydro-4H-pyrazolo[3,4-b]quinolin-4-one]"
6,146 to 148 °C,"CCOc1cccc(-n2nc(C)c3c(Cl)c4c(C)cccc4nc32)n1 [Example 2-121, 4-Chloro-3,5-dimethyl-1-(6-ethoxy-2-pyridinyl)-1H-pyrazolo[3,4-b]quinoline]"
7,213 to 215 °C,"CCOc1cccc(-n2nc(C)c3c(=O)c4c(C)cccc4[nH]c32)n1 [Example 2-122, 3,5-Dimethyl-1-(6-ethoxy-2-pyridinyl)-1,9-dihydro-4H-pyrazolo[3,4-b]quinolin-4-one]"
8,176 to 178 °C,"Cc1cccnc1-n1nc(C)c2c(Cl)c3c(C)cccc3nc21 [Example 2-123, 4-Chloro-3,5-dimethyl-1-(3-methyl-2-pyridinyl)-1H-pyrazolo[3,4-b]quinoline]"
9,271 to 274 °C,"Cc1cccnc1-n1nc(C)c2c(N)c3c(C)cccc3nc21 [Example 2-124, 3,5-Dimethyl-1-(3-methyl-2-pyridinyl)-1H-pyrazolo[3,4-b]quinolin-4-ylamine]"
10,195 to 197 °C,"Cc1cccnc1-n1nc(C)c2c(=O)c3c(C)cccc3[nH]c21 [Example 2-125, 3,5-Dimethyl-1-(3-methyl-2-pyridinyl)-1,9-dihydro-4H-pyrazolo[3,4-b]quinolin-4-one]"
11,148 to 151 °C,"COc1cccc(-n2nc(C)c3c(Cl)c4cccc(C)c4nc32)n1 [Example 2-126, 4-Chloro-3,8-dimethyl-1-(6-methoxy-2-pyridinyl)-1H-pyrazolo[3,4-b]quinoline]"
12,134 to 137 °C,"COc1cccc(-n2nc(C)c3c(N)c4cccc(C)c4nc32)n1 [Example 2-127, 3,8-Dimethyl-1-(6-methoxy-2-pyridinyl)-1H-pyrazolo[3,4-b]quinolin-4-ylamine]"
13,151 to 153 °C,"CCOc1cccc(-n2nc(C)c3c(Cl)c4cccc(C)c4nc32)n1 [Example 2-128, 4-Chloro-3,8-dimethyl-1-(6-ethoxy-2-pyridinyl)-1H-pyrazolo[3,4-b]quinoline]"
14,184 to 187 °C,"CCOc1cccc(-n2nc(C)c3c(N)c4cccc(C)c4nc32)n1 [Example 2-129, 3,8-Dimethyl-1-(6-ethoxy-2-pyridinyl)-1H-pyrazolo[3,4-b]quinolin-4-ylamine]"
15,239 to 241 °C,"CCOc1cccc(-n2nc(C)c3c(=O)c4cccc(C)c4[nH]c32)n1 [Example 2-130, 3,8-Dimethyl-1-(6-ethoxy-2-pyridinyl)-1,9-dihydro-4H-pyrazolo[3,4-b]quinolin-4-one]"
